Earlier results in patent US20100029602A1, “LOW-DOSE MOMETASONE FORMULATIONS” (Perrigo Israel Pharmaceuticals Ltd., priority 2007, published 2010).

In the case of `C[C@@H]1C[C@H]2[C@@H]3CCC4=CC(=O)C=C[C@]4(C)[C@@]3(Cl)[C@@H](O)C[C@]2(C)[C@@]1(OC(=O)c1ccco1)C(=O)CCl` [Mometasone furoate], the “solubility in ethyl alcohol” value (ethyl alcohol) is listed as “moderately soluble”, the solubility in octanol (octanol) is listed as “slightly soluble” and the solubility in water (water) is listed as “practically insoluble”.
